Results: patent US20160177395A1, “BIOMARKERS FOR THE PREDICTION OF RENAL INJURY” (priority 2007, published 2016)
Several values for one entry are separate records, joined by “and”; a condition that tells them apart may be missing. Equal values may be shown once.

Tested on: kidney tissues of treated or untreated rats
Assay: Real-time qRT-PCR of marker transcripts in kidney tissue panel, discovery stage (Table 22)
Type: in vivo, rat
Settings: listed as Dox; for normalized Real Time PCR MMU09507_DB81_seg15: kidney; for H33998_DB71_seg19 normalized Real Time PCR / MUSCYCG1R_DB81_seg15-17 normalized Real Time PCR / RATLRFI_DB71_seg9 normalized Real Time PCR / RATRAB13X_DB71_seg11-13 normalized Real Time PCR / RNU24174_DB71_seg8 normalized Real Time PCR / W41270_DB81_seg11 normalized Real Time PCR / W64472_DB81_seg2 normalized Real Time PCR / W83813_DB81_seg27 normalized Real Time PCR / AA686189_DB71_seg6 normalized Real Time PCR expression / AI045075_DB71_seg6 normalized Real Time PCR expression / AI454051_DB71_seg0 normalized Real Time PCR expression / H31045_DB71_seg5 normalized Real Time PCR expression: rat kidney
Description: Before RT preparation the RNA was treated with DNA-free (Ambion, cat. No. AM1906) DNase treatment and removal—according to manufacturer protocol. DNase procedure was repeated until no DNA is detected in a PCR reaction using the RNA samples.
The mixture is then incubated for 5 min at 65° C. and then quickly chilled on ice. Thereafter, 20 μl of 5× SuperscriptII first strand buffer (Invitrogen, Cat. No. Y00146), 9.6 μl 0.1M DTT (Invitrogen, Cat. No. Y00147) and 160 units RNasin (Promega, Cat. No. N251A) are added, and the mixture is incubated for 10 min at 25° C., followed by further incubation at 42° C. for 2 min. […] The resulting cDNA is diluted 1:20 in TE buffer (10 mM Tris pH=8, 1 mM EDTA pH=8).
cDNA (5 μl), prepared as described above, is used as a template in Real-Time PCR reactions using the SYBR Green I assay (PE Applied Biosystem) with specific primers in 100 nM concentration if not indicated otherwise and UNG Enzyme (Eurogentech or equal) Amplification is effected as follows: 50° C. for 2 min, 95° C. for 10 min, and then 40 cycles of 95° C. for 15 sec, followed by 60° C. for 1 min (if not indicated otherwise). Amplification step is followed by dissociation step. Detection is performed by using the PE Applied Biosystem SDS 7000. The cycle in which the reactions achieved a threshold level (Ct) of fluorescence is registered and is used to calculate the relative transcript quantity in the RT reactions. Non-detected samples are assigned Ct value of 41 and are calculated accordingly. The relative quantity is calculated using the equation Q=efficiencŷ-Ct. The efficiency of the PCR reaction is calculated from a standard curve, created by using serial dilutions of several reverse transcription (RT) reactions. To minimize inherent differences in the RT reaction, the resulting relative quantities are normalized to normalization factor calculated as follows: […]
The relative quantity (Q) of each housekeeping gene in each sample is calculated as described above. In order to calculate the “relative Q relative to MED” each Q for each HSKP gene is divided by the median quantity of this gene in all panel samples. To finally achieve the normalization factor of each sample the geometric mean of all four “relative Q relative to MED” was calculated. The normalization factor was then used for further calculations.
The markers of the present invention were tested with regard to their expression in a panel of kidney tissues samples from treated and control rats. Unless otherwise noted, all experimental data relates to the novel polynucleotides and proteins of the present invention, named according to the segment being tested (as expression was tested through RT-PCR as described). Tests were then performed as described in the “Materials and Experimental Procedures” section above.
The qRT-PCR measurements were normalized according to each samples normalization factor as described in “RT Preparation and Real-Time qRT-PCR Analysis” and further multiplied by a constant factor for ease of viewing.

[1] = day1, individual animals (F and M)
[2] = day5, individual animals (F and M)
[3] = day28, individual animals (F and M)

For `COc1cccc2c1C(=O)c1c(O)c3c(c(O)c1C2=O)C[C@@](O)(C(=O)CO)C[C@@H]3O[C@H]1C[C@H](N)[C@H](O)[C@H](C)O1` [Doxorubicin], the “normalized Real Time PCR MMU09507_DB81_seg15” value (female rats, day1) was 0.48 and 0.52 and 0.93, the “normalized Real Time PCR MMU09507_DB81_seg15” value (female rats, day5) was 2.07 and 1.46 and 1.82 and the “normalized Real Time PCR MMU09507_DB81_seg15” value (female rats, day28) was 4.47 and 2.99 and 2.89. For the same compound, the “normalized Real Time PCR MMU09507_DB81_seg15” value (male rats, day1) was 0.74 and 0.71 and 0.59, the “normalized Real Time PCR MMU09507_DB81_seg15” value (male rats, day5) was 1.74 and 1.67 and the “normalized Real Time PCR MMU09507_DB81_seg15” value (male rats, day28) was 3.04 and 2.93 and 2.13. For the same compound, the “H33998_DB71_seg19 normalized Real Time PCR” value [1] was 1.25 and 1.34 and 2.14 and 0.97 and 1.07 and 2.75, the “MUSCYCG1R_DB81_seg15-17 normalized Real Time PCR” value [1] was 1.66 and 1.12 and 1.36 and 0.56 and 0.64 and 0.66 and the “RATLRFI_DB71_seg9 normalized Real Time PCR” value [1] was 0.25 and 0.21 and 0.31 and 0.46 and 0.48 and 0.24. The “RATRAB13X_DB71_seg11-13 normalized Real Time PCR” value [1] was 1.1 and 0.9 and 1 and 0.88 and 1.09 and 0.86, the “RNU24174_DB71_seg8 normalized Real Time PCR” value [1] was 0.29 and 0.35 and 0.31 and 0.48 and 0.49 and 0.36 and the “W41270_DB81_seg11 normalized Real Time PCR” value [1] was 2.24 and 1.2 and 1.56 and 1.74 and 0.95 and 0.91. The “W64472_DB81_seg2 normalized Real Time PCR” value [1] was 1.58 and 1.09 and 1.15 and 0.86 and 0.77 and 0.56, the “W83813_DB81_seg27 normalized Real Time PCR” value [1] was 2.9 and 1.56 and 2 and 0.68 and 0.78 and 0.64 and the “AA686189_DB71_seg6 normalized Real Time PCR expression” value (day1, individual animals) was 0.59 and 0.49 and 0.39 and 0.78 and 0.4 and 0.26. The “AI045075_DB71_seg6 normalized Real Time PCR expression” value (day1, individual animals) was 1.12 and 1.21 and 0.78 and 0.61 and 0.64 and 3.12, the “AI454051_DB71_seg0 normalized Real Time PCR expression” value (day1, individual animals) was 1.2 and 1.05 and 1.54 and 0.8 (2×) and 1.03 and the “H31045_DB71_seg5 normalized Real Time PCR expression” value (day1, individual animals) was 1.15 and 0.3 and 1.95 and 0.23 and 0.32 and 0.75. For the same compound, the “H33998_DB71_seg19 normalized Real Time PCR” value [2] was 2.39 and 1.29 and 3.68 and 1.19 and 1.37, the “MUSCYCG1R_DB81_seg15-17 normalized Real Time PCR” value [2] was 1.51 and 1.97 and 3.17 and 1.65 and 2 and the “RATLRFI_DB71_seg9 normalized Real Time PCR” value [2] was 0.46 and 0.29 and 0.18 and 0.47 and 0.25. The “RATRAB13X_DB71_seg11-13 normalized Real Time PCR” value [2] was 1.17 and 1.16 and 0.94 and 0.7 and 0.83, the “RNU24174_DB71_seg8 normalized Real Time PCR” value [2] was 0.83 and 0.59 and 0.63 and 1.08 and 0.87 and the “W41270_DB81_seg11 normalized Real Time PCR” value [2] was 1.71 and 1.37 and 2.13 and 1.64 and 1.35. The “W64472_DB81_seg2 normalized Real Time PCR” value [2] was 1.97 and 1.36 and 2.36 and 3 and 2.54, the “W83813_DB81_seg27 normalized Real Time PCR” value [2] was 2.28 and 1.99 and 2.9 and 1.3 and 1.41 and the “AA686189_DB71_seg6 normalized Real Time PCR expression” value (day5, individual animals) was 1.2 and 0.6 and 0.51 and 0.48 and 0.38. The “AI045075_DB71_seg6 normalized Real Time PCR expression” value (day5, individual animals) was 0.93 (2×) and 2.05 and 0.76 and 0.57, the “AI454051_DB71_seg0 normalized Real Time PCR expression” value (day5, individual animals) was 1.17 and 1.35 and 1.44 and 0.3 and 0.95 and the “H31045_DB71_seg5 normalized Real Time PCR expression” value (day5, individual animals) was 1.86 and 1.19 and 0.52 and 0.35 and 1.41. The “H33998_DB71_seg19 normalized Real Time PCR” value [3] was 0.48 and 0.58 and 0.96 and 0.64 and 0.44 and 0.54, the “MUSCYCG1R_DB81_seg15-17 normalized Real Time PCR” value [3] was 1.07 and 1.52 and 1.26 and 0.99 and 0.98 and 1.28 and the “RATLRFI_DB71_seg9 normalized Real Time PCR” value [3] was 0.72 and 0.4 and 1.47 and 8.34 and 0.53 and 1.08.
